Earlier results, collected in patent US20080153167A1, “In vivo amplification of neural progenitor cells” (priority 2006, published 2008).

System: PDGF driven tumors
Details: Shih et al. 2004

Question: Which “effect on PDGF driven tumors” value does the source give for `Clc1ccc(Nc2nnc(Cc3ccncc3)c3ccccc23)cc1` [PTK787] here?
Answer: Its value is “caused high-grade tumors to acquire low-grade histology, but it did not completely eradicate tumor growth”.
